Test results as given in patent US9224959B2, “Method for producing a pi-electron conjugated compound” (Ricoh Company, Ltd., priority 2009, dated 2015).

Experiments:
[1] = carboxylic acid as eliminated component; cited from earlier work
[2] = Evaluation of solubility (saturated solution after reflux and cooling to room temperature); type: physicochemical; conditions: refluxed 10 min, cooled to room temperature, left 16 hours, 0.2 μm PTFE filtered
Method: The mixture was further stirred for 1 hour and left to stand for 16 hours, and the supernatant was filtered using a 0.2 μm-PTFE filter, to thereby obtain a saturated solution. The saturated solution was dried under reduced pressure, and the solubility of the precursor in each solvent was calculated.

Row | SMILES | Acidity [1] [pKa] | Solubility in THF [2] | Solubility in Anisole [2] | Solubility in Chloroform [2] | Solubility in Toluene [2]
1 | O=C(O)CC(F)(F)F [3,3,3-trifluoropropionic acid] | 3.0 | – | – | – | –
2 | CC(C)(C)C(=O)OC1CCC(OC(=O)C(C)(C)C)c2cc(-c3cc4sc(-c5ccc6c(c5)C(OC(=O)C(C)(C)C)CCC6OC(=O)C(C)(C)C)cc4s3)ccc21 (stereo not shown) [Compound 12] | – | A (the solubility is 0.5% by mass or more) | A (the solubility is 0.5% by mass or more) | A (the solubility is 0.5% by mass or more) | A (the solubility is 0.5% by mass or more)
3 | O=C(CC(F)(F)F)OC1CCC(OC(=O)CC(F)(F)F)c2cc(-c3cc4sc(-c5ccc6c(c5)C(OC(=O)CC(F)(F)F)CCC6OC(=O)CC(F)(F)F)cc4s3)ccc21 (stereo not shown) [Compound 13] | – | A (the solubility is 0.5% by mass or more) | B (the solubility is 0.1% by mass or more to less than 0.5% by mass) | A (the solubility is 0.5% by mass or more) | A (the solubility is 0.5% by mass or more)
4 | O=C(CC(F)(F)F)OC1CCC(OC(=O)CC(F)(F)F)c2cc(-c3cc4cc5sc(-c6ccc7c(c6)C(OC(=O)CC(F)(F)F)CCC7OC(=O)CC(F)(F)F)cc5cc4s3)ccc21 (stereo not shown) [Compound 14] | – | A (the solubility is 0.5% by mass or more) | A (the solubility is 0.5% by mass or more) | A (the solubility is 0.5% by mass or more) | B (the solubility is 0.1% by mass or more to less than 0.5% by mass)
5 | O=C(CC(F)(F)F)OC1CCC(OC(=O)CC(F)(F)F)c2cc(-c3ccc4c(c3)sc3c5ccc(-c6ccc7c(c6)C(OC(=O)CC(F)(F)F)CCC7OC(=O)CC(F)(F)F)cc5sc43)ccc21 (stereo not shown) [Compound 16] | – | A (the solubility is 0.5% by mass or more) | B (the solubility is 0.1% by mass or more to less than 0.5% by mass) | A (the solubility is 0.5% by mass or more) | B (the solubility is 0.1% by mass or more to less than 0.5% by mass)
6 | c1ccc2cc(-c3cc4sc(-c5ccc6ccccc6c5)cc4s3)ccc2c1 [Compound 17] | – | D (the solubility is less than 0.005% by mass) | D (the solubility is less than 0.005% by mass) | D (the solubility is less than 0.005% by mass) | D (the solubility is less than 0.005% by mass)
7 | c1ccc2cc(-c3cc4cc5sc(-c6ccc7ccccc7c6)cc5cc4s3)ccc2c1 [Compound 18] | – | D (the solubility is less than 0.005% by mass) | D (the solubility is less than 0.005% by mass) | D (the solubility is less than 0.005% by mass) | D (the solubility is less than 0.005% by mass)
8 | c1ccc2cc(-c3ccc4c(c3)sc3c5ccc(-c6ccc7ccccc7c6)cc5sc43)ccc2c1 [Compound 19] | – | D (the solubility is less than 0.005% by mass) | D (the solubility is less than 0.005% by mass) | D (the solubility is less than 0.005% by mass) | D (the solubility is less than 0.005% by mass)
9 | CCCCCC(=O)O [caproic acid] | 4.6 | – | – | – | –
10 | CC(C)(C)C(=O)O [pivalic acid] | 5.0 | – | – | – | –
